Measurements: patent US20230048576A1, “COMPOUNDS FOR THE TREATMENT OF NEUROPATHIC PAIN” (City of Hope, priority 2019, published 2023)
≈ marks a conversion by molar mass, not a printed value. Where “and” joins values, the source holds several entries; their conditions need not be identical. Equal values may be shown once. Entries after “also recorded” stand apart in the source; their conditions may differ. Marks after values point to notes of the source that are not given here.

Key:
[1] = Stability in acidic environment (simulated gastric fluid test), precipitation under polarized light microscope; assay type: physicochemical
Protocol: To test the stability in the acidic environment (simulated gastric fluid test) of 5 and 10 mg/ml of LR-90 in 20% HPβCD in pH 8.0 buffer, the two concentrations were added into the equal volume of pH 1.2 buffer, mixed completely, and then observed under a polarized light microscope.

[2] = Formulation stability in 20% HPβCD in pH 8.0 buffer (HPLC area %); assay type: physicochemical
[3] = Solubility of purified LR-90 in different vehicles; assay type: physicochemical
Protocol: In order to develop a vehicle formulation for LR-90 for use in humans, 15 different vehicles were tested to measure the solubility of the purified LR-90 (Table 6).

[4] = Survival of animals during the study; assay type: in vivo, rat
Protocol: (§1) Neuropathic pain was induced by intraperitoneal administration of Taxol at a dose level of 6 mg/kg on study days 0-6 and 12 mg/kg on study days 7-12. Following injection of Taxol animals experienced pain as was assessed using the von Frey test. The development of neuropathic pain was confirmed by measuring mechanical allodynia (Von Frey test) on study day 13 (for inclusion) and on study day 14 (1 hour and 2 hour post dosing) and 24 hour post first dosing.

[5] = Pharmacokinetic study following a single oral administration; assay type: in vivo, Sprague-Dawley (SD) rats; details: in 20% HPβCD in pH 8.0 buffer; 50 mg/kg oral gavage; vs salt in water, 4% DMSO in corn oil, Ora-Blend SF
Protocol: Pharmacokinetic studies of four different formulations of LR-90 were investigated. LR-90 either in salt formulation dissolved in water, in 4% DMSO in corn oil, in 20% HPβCD in pH 8.0 buffer, and in Ora-Blend SF was delivered at a dose of 50 mg/kg by oral gavage in Sprague-Dawley (SD) rats. Blood samples were collected at 0 min, 15 min, 30 min, 1 hr, 2 hr, 4 hr, 8 hr, 24 hr and 48 hr post-dosing. LR-90 level was determined in plasma by LC-MS/MS assay.

[6] = system: Taxol-induced neuropathic pain; experiment: Von Frey test (mechanical allodynia) in Taxol induced model of neuropathic pain; assay type: in vivo, rat
Protocol: as §1
All data are presented as means±SEM. Each treatment group was compared to the Vehicle group using Two way ANOVA (for VF) followed by Tukey post-test (GraphPad). Vehicle group is compared to naïve group using T-test. A p value<0.05 is considered to represent a significant difference.
The response to tactile allodynia was evaluated using the Von Frey apparatus (Touch Test®). The rat was placed in an enclosure and positioned on a metal mesh surface, but allowed to move freely. A set of dull monofilaments provide an increasing force was applied on the animal plantar surface of the paw. The lowest force requires for animal paw withdrawal was recorded. Low force values recorded in this test indicate a painful state.

[7] = Solubility of purified LR-90 in different vehicles; assay type: physicochemical; details: 20% HPβCD in pH 8.0 buffer (w/v); 5 or 10 mg/ml
[8] = 5 mg/ml LR-90 in 20% HPβCD in pH 8.0 buffer
[9] = 10 mg/ml LR-90 in 20% HPβCD in pH 8.0 buffer

With `CC(C)(Oc1ccc(NC(=O)Nc2ccc(Cc3ccc(NC(=O)Nc4ccc(OC(C)(C)C(=O)O)cc4)c(Cl)c3)cc2Cl)cc1)C(=O)O` [LR-90, methylene bis[4,4′-(2-chlorophenylureidophenoxyisobutyric acid)]] the “precipitation after mixing with equal volume of pH 1.2 buffer” value ([1]; 5 mg/ml LR-90 in 20% HPβCD in pH 8.0 buffer, after an hour) was “no precipitation”, the “precipitation after mixing with equal volume of pH 1.2 buffer” value ([1]; 10 mg/ml LR-90 in 20% HPβCD in pH 8.0 buffer, about 60 min) was “Very little precipitation” and the “Final Purity (24 hr) (HPLC area)” value [2, 8] was 99.20%. The “Initial Purity (HPLC area)” value [2, 8] was 99.21%, the “Final Purity (24 hr) (HPLC area)” value [2, 9] was 99.14% and the “Initial Purity (HPLC area)” value [2, 9] was 99.20%. The “degradation of the compound” value ([2]; 20% HPβCD solution, at least for 24 hours) was “no degradation”, the Solubility ([3]; Media: 10% Kolliphor RH40 in water (W/V)) was 1220 µg/mL (≈ 1.72 mM) and the Solubility ([3]; Media: 10% Solutol in water (W/V)) was 1250 µg/mL (≈ 1.76 mM). The Solubility ([3]; Media: 10% TPGS in water (W/V)) was 560 µg/mL (≈ 0.789 mM), the Solubility ([3]; Media: 20% Labsol tn water (W/V)) was 1650 µg/mL (≈ 2.33 mM) and the Solubility ([3]; Media: 30% Captisol in water (W/V)) was 1710 µg/mL (≈ 2.41 mM). For the same compound, the Solubility ([3]; Media: 40% HPβCD in water (W/V)) was 3660 µg/mL (≈ 5.16 mM), the Solubility ([3]; Media: DMA) was >531000 µg/mL and the Solubility ([3]; Media: DMSO) was >258500 µg/mL. The Solubility ([3]; Media: EtOH) was >4600 µg/mL, the Solubility ([3]; Media: PEG300) was >16790 µg/mL and the Solubility ([3]; Media: PEG400) was >10100 µg/mL. The Solubility ([3]; Media: PG) was >2270 µg/mL, the Solubility ([3]; Media: pH 6.8) was 1670 µg/mL (≈ 2.35 mM) and the Solubility ([3]; Media: pH 8) was 7120 µg/mL (≈ 10 mM). The “Survived Animals in %” value ([4]; 25 mg/kg PO, Group 6, Study Day 13) was 100%, the “Survived Animals in %” value ([4]; 25 mg/kg PO, Group 6, Study Day 14) was 100% and the “Survived Animals in %” value ([4]; 25 mg/kg PO, Group 6, Study Day 15) was 100%. For the same compound, the “Survived Animals in %” value ([4]; 25 mg/kg PO, Group 6, Study Day 16) was 100%, the “Survived Animals in %” value ([4]; 25 mg/kg PO, Group 6, Study Day 17) was 100% and the “Survived Animals in %” value ([4]; 25 mg/kg PO, Group 6, Study Day 18) was 100%. The “Survived Animals in %” value ([4]; 25 mg/kg PO, Group 6, Study Day 19) was 100%, the “Survived Animals in %” value ([4]; 25 mg/kg PO, Group 6, Study Day 20) was 100% and the “Survived Animals in %” value ([4]; 25 mg/kg PO, Group 6, Study Day 21) was 100%. For the same compound, the “Survived Animals in %” value ([4]; 25 mg/kg PO, Group 6, Study Day 22) was 100%, the “Survived Animals in %” value ([4]; 25 mg/kg PO, Group 6, Study Day 23) was 100% and the “Survived Animals in %” value ([4]; 25 mg/kg PO, Group 6, Study Day 24) was 100%. For the same compound, the “Survived Animals in %” value ([4]; 25 mg/kg PO, Group 6, Study Day 25) was 75%, the “Survived Animals in %” value ([4]; 25 mg/kg PO, Group 6, Study Day 28) was 38% and the “Survived Animals in %” value ([4]; 50 mg/kg PO, Group 5, Study Day 13) was 100%. The “Survived Animals in %” value ([4]; 50 mg/kg PO, Group 5, Study Day 14) was 100%, the “Survived Animals in %” value ([4]; 50 mg/kg PO, Group 5, Study Day 15) was 100% and the “Survived Animals in %” value ([4]; 50 mg/kg PO, Group 5, Study Day 16) was 100%. The “Survived Animals in %” value ([4]; 50 mg/kg PO, Group 5, Study Day 17) was 100%, the “Survived Animals in %” value ([4]; 50 mg/kg PO, Group 5, Study Day 18) was 100% and the “Survived Animals in %” value ([4]; 50 mg/kg PO, Group 5, Study Day 19) was 100%. For the same compound, the “Survived Animals in %” value ([4]; 50 mg/kg PO, Group 5, Study Day 20) was 100%, the “Survived Animals in %” value ([4]; 50 mg/kg PO, Group 5, Study Day 21) was 100% and the “Survived Animals in %” value ([4]; 50 mg/kg PO, Group 5, Study Day 22) was 88%. The “Survived Animals in %” value ([4]; 50 mg/kg PO, Group 5, Study Day 23) was 88%, the “Survived Animals in %” value ([4]; 50 mg/kg PO, Group 5, Study Day 24) was 50% and the “Survived Animals in %” value ([4]; 50 mg/kg PO, Group 5, Study Day 25) was 50%. The “Survived Animals in %” value ([4]; 50 mg/kg PO, Group 5, Study Day 28) was 38%, the “Survived Animals in %” value ([4]; 100 mg/kg PO, Group 4, Study Day 13) was 100% and the “Survived Animals in %” value ([4]; 100 mg/kg PO, Group 4, Study Day 14) was 100%. For the same compound, the “Survived Animals in %” value ([4]; 100 mg/kg PO, Group 4, Study Day 15) was 100%, the “Survived Animals in %” value ([4]; 100 mg/kg PO, Group 4, Study Day 16) was 100% and the “Survived Animals in %” value ([4]; 100 mg/kg PO, Group 4, Study Day 17) was 100%. The “Survived Animals in %” value ([4]; 100 mg/kg PO, Group 4, Study Day 18) was 100%, the “Survived Animals in %” value ([4]; 100 mg/kg PO, Group 4, Study Day 19) was 100% and the “Survived Animals in %” value ([4]; 100 mg/kg PO, Group 4, Study Day 20) was 100%. For the same compound, the “Survived Animals in %” value ([4]; 100 mg/kg PO, Group 4, Study Day 21) was 100%, the “Survived Animals in %” value ([4]; 100 mg/kg PO, Group 4, Study Day 22) was 100% and the “Survived Animals in %” value ([4]; 100 mg/kg PO, Group 4, Study Day 23) was 88%. For the same compound, the “Survived Animals in %” value ([4]; 100 mg/kg PO, Group 4, Study Day 24) was 63%, the “Survived Animals in %” value ([4]; 100 mg/kg PO, Group 4, Study Day 25) was 38% and the “Survived Animals in %” value ([4]; 100 mg/kg PO, Group 4, Study Day 28) was 38%. The “pharmacokinetics (plasma LR-90 level) compared with the three other formulations” value [5] was “superior”, the “effect on the sensitivity of the treated animals to mechanical stimulation” value ([6]; 25 mg/kg) was “No significant effect” and the “mean Von Frey force required for withdrawal” value (shortened to “mean Von Frey force required”) ([6]; 25 mg/kg PO, Group 6, Baseline) was 60.00 g. The “mean Von Frey force required” value ([6]; 25 mg/kg PO, Group 6, Day 13 pre dosing) was 9.81 g, the “mean Von Frey force required” value ([6]; 25 mg/kg PO, Group 6, Day 14 1 hour post dosing) was 21.88 g and the “mean Von Frey force required” value ([6]; 25 mg/kg PO, Group 6, Day 14 2 hours post dosing) was 17.31 g. For the same compound, the “mean Von Frey force required” value ([6]; 25 mg/kg PO, Group 6, Day 15 24 hours post dosing) was 14.13 g, the “effect on the sensitivity of the treated animals to mechanical stimulation” value ([6]; 50 mg/kg) was “No significant effect” and the “mean Von Frey force required” value ([6]; 50 mg/kg PO, Group 5, Baseline) was 60.00 g. The “mean Von Frey force required” value ([6]; 50 mg/kg PO, Group 5, Day 13 pre dosing) was 9.81 g, the “mean Von Frey force required” value ([6]; 50 mg/kg PO, Group 5, Day 14 1 hour post dosing) was 17.38 g and the “mean Von Frey force required” value ([6]; 50 mg/kg PO, Group 5, Day 14 2 hours post dosing) was 22.13 g. For the same compound, the “mean Von Frey force required” value ([6]; 50 mg/kg PO, Group 5, Day 15 24 hours post dosing) was 16.75 g, the “mean Von Frey force required” value ([6]; 100 mg/kg PO, Group 4, Baseline) was 57.88 g and the “mean Von Frey force required” value ([6]; 100 mg/kg PO, Group 4, Day 13 pre dosing) was 10.06 g. For the same compound, the “mean Von Frey force required” value ([6]; 100 mg/kg PO, Group 4, Day 14 1 hour post dosing) was 34.69**** g, the “mean Von Frey force required” value ([6]; 100 mg/kg PO, Group 4, Day 14 2 hours post dosing) was 32.56±7.56 g and 32.56*** g and the “mean Von Frey force required” value ([6]; 100 mg/kg PO, Group 4, Day 15 24 hours post dosing) was 26.25 g. The “effect on neuropathic pain compared to the vehicle group (Von Frey test)” value ([6]; 100 mg/kg, Group 4, 1 hour and 2 hour post dosing on study day 14) was “statistically significantly reduced the neuropathic pain; also recorded: significantly effective in reducing neuropathic pain” and the “dissolution to a solution of the drug target concentration” value [7] was “could be dissolved”.
